Assay results published in US9040519B2, “Fused tetracyclic pyrido [4,3-B] indole and pyrido [3,4-B] indole derivatives and methods of use” (Medivation Technologies, Inc., priority 2010, dated 2015).

What was measured:
[1] = molecular target: T1, human recombinant serotonin (5-Hydroxytryptamine) 5-HT2C receptor (Homo sapiens, UniProt P28335); test: Serotonin 5-HT2C radioligand binding ([3H]Mesulergine); conditions: compound at 0.1 μM; CHO K1 cells; read-out: Percentage inhibition of ligand binding, Serotonin 5-HT2C
T1 construct: expressed in transfected cells; host or cells: CHO-K1
T1 sequence (P28335 33-458): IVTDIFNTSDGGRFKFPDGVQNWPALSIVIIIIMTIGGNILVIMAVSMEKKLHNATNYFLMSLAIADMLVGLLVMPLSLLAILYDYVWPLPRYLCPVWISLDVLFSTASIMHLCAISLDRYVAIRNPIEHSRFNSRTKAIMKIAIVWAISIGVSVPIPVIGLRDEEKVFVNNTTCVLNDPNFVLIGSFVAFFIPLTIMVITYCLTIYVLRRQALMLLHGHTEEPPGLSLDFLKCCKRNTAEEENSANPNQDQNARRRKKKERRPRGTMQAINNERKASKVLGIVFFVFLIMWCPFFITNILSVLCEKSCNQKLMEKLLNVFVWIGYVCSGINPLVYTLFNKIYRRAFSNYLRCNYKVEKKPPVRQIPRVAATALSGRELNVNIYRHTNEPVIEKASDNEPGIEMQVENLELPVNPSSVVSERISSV
Protocol: To evaluate in radioligand binding assays the activity of compounds of the invention, human recombinant serotonin (5-Hydroxytryptamine) 5-HT2C receptor expressed in Chinese hamster ovary (CHO) K1 cells (Wolf, W. et al, J. Neurochem. 69:1449, 1997) in a modified Tris-HCl buffer (50 mM Tris-HCl, pH 7.4, 0.1% Ascorbic Acid, 10 μM Pargyline) was used. Compounds of the invention were incubated with 1 nM [^3H]Mesulergine for 60 min at 25° C. Non-specific binding was estimated in the presence of 1 μM Mianserin. Receptor proteins were filtered and washed, the filters were then counted to determine [^3H]Mesulergine specifically bound. Compounds were screened at 1 μM or lower, using 1% DMSO as vehicle. Biochemical assay results are presented as the percent inhibition of specific binding in Table 4.

[2] = molecular target: T2, human recombinant dopamine D2L receptor (Homo sapiens, UniProt P14416); test: Dopamine D2L radioligand binding ([3H]Spiperone); conditions: compound at 1 μM; CHO cells; read-out: Percentage inhibition of ligand binding, Dopamine D2L
T2 construct: expressed in transfected cells; host or cells: CHO
T2 sequence (P14416 whole entry): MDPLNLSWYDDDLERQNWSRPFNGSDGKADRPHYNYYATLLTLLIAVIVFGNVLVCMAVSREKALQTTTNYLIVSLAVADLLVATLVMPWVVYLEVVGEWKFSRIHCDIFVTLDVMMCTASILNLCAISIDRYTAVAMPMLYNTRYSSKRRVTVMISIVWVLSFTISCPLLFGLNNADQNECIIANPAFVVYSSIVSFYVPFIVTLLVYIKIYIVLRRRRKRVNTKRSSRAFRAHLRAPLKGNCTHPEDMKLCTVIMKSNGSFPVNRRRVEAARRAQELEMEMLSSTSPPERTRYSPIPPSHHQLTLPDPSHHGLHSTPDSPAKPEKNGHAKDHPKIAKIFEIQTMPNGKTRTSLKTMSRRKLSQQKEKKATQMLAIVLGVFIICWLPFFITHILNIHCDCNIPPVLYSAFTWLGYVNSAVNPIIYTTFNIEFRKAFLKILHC
Protocol: To evaluate in radioligand binding assays the activity of compounds of the invention, human recombinant dopamine D2L receptor expressed in Chinese hamster ovary (CHO) cells (Grandy, D. et al, Proc. Natl. Acad. Sci. USA. 86:9762, 1989; Hayes, G. et al, Mol. Endocrinol. 6:920, 1992) in a modified Tris-HCl buffer (50 mM Tris-HCl, pH 7.4, 1.4 mM Ascorbic Acid, 0.001% BSA, 150 mM NaCl) was used. Compounds of the invention were incubated with 0.16 nM [^3H]Spiperone for 120 min at 25° C. Non-specific binding was estimated in the presence of 10 μM Haloperidol. Receptor proteins were filtered and washed, the filters were then counted to determine [^3H]Spiperone specifically bound. Compounds were screened at 1 μM or lower, using 1% DMSO as vehicle. Biochemical assay results are presented as the percent inhibition of specific binding in Table 3.

[3] = molecular target: T3, human recombinant serotonin (5-Hydroxytryptamine) 5-HT6 receptor (Homo sapiens, UniProt P50406); test: Serotonin 5-HT6 radioligand binding ([3H]LSD); conditions: compound at 0.1 μM; HeLa cells; read-out: Percentage inhibition of ligand binding, Serotonin 5-HT6
T3 construct: expressed in transfected cells; host or cells: HeLa
T3 sequence (P50406 whole entry): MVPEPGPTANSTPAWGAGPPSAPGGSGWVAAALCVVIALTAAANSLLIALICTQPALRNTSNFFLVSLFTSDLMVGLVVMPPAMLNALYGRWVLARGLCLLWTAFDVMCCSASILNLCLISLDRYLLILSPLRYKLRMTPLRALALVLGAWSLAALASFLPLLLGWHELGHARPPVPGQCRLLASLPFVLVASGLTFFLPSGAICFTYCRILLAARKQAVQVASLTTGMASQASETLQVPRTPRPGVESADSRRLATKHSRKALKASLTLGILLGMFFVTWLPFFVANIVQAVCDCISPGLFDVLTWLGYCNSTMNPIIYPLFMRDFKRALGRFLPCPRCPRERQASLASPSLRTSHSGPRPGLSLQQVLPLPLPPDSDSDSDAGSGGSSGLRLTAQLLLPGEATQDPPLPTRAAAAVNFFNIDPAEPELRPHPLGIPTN
Protocol: To evaluate in radioligand binding assays the activity of compounds of the invention, human recombinant serotonin (5-Hydroxytryptamine) 5-HT6 receptor expressed in human HeLa cells (Monsma, F. Jr. et al, Mol. Pharmacol. 43:320, 1993) in a modified Tris-HCl buffer (50 mM Tris-HCl, pH 7.4, 150 mM NaCl, 2 mM Ascorbic Acid, 0.001% BSA) was used. Compounds of the invention were incubated with 1.5 nM [3H]Lysergic acid diethylamide (LSD) for 120 min at 37° C. Non-specific binding was estimated in the presence of 5 μM Serotonin (5-HT). Receptor proteins were filtered and washed, the filters were then counted to determine [3H]LSD specifically bound. Compounds were screened at 1 μM or lower, using 1% DMSO as vehicle. Biochemical assay results are presented as the percent inhibition of specific binding in Table 4.

[4] = molecular target: T4, human recombinant serotonin (5-Hydroxytryptamine) 5-HT5A receptor (Homo sapiens, UniProt P47898); test: Serotonin 5-HT5A radioligand binding ([3H]LSD); conditions: compound at 0.1 μM; CHO K1 cells; read-out: Percentage inhibition of ligand binding, Serotonin 5-HT5A
T4 construct: expressed in transfected cells; host or cells: CHO-K1
T4 sequence (P47898 whole entry): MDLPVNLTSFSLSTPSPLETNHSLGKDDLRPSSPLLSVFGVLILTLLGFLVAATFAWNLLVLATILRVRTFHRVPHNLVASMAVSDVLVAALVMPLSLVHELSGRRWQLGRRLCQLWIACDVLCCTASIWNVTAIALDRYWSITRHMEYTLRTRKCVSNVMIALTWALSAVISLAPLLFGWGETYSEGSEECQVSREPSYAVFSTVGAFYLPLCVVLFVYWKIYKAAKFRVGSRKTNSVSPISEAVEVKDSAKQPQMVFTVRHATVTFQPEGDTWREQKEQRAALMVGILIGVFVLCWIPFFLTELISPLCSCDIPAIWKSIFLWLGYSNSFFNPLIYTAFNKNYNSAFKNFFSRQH
Protocol: To evaluate in radioligand binding assays the activity of compounds of the invention, human recombinant serotonin (5-Hydroxytryptamine) 5-HT5A receptor expressed in Chinese hamster ovary (CHO) K1 cells (Rees, S. et al, FEBS Lett. 355:242, 1994) in a modified Tris-HCl buffer (50 mM Tris-HCl, pH 7.4, 10 mM MgCl2, 0.5 mM EDTA) was used. Compounds of the invention were incubated with 1.7 nM [^3H]Lysergic acid diethylamide (LSD) for 60 min at 37° C. Non-specific binding was estimated in the presence of 100 μM Serotonin (5-HT). Receptor proteins were filtered and washed, the filters were counted to determine [^3H]LSD specifically bound. Compounds were screened at 1 μM or lower, using 1% DMSO as vehicle. Biochemical assay results are presented as the percent inhibition of specific binding in Table 4.

Structure (SMILES) | inhibition at 0.1 µM [1] | inhibition at 1 µM [2] | inhibition at 0.1 µM [3] | inhibition at 0.1 µM [4]
Cc1ccc2c(c1)c1c3n2C(c2ccccc2)=CCC3(C)CN(C)C1 (stereo not drawn) [Compound 10, 2,3a,10-trimethyl-6-phenyl-2,3,3a,4-tetrahydro-1H-indolo[3,2,1-ij][1,6]naphthyridine] | 17% | 9% | 7% | -8%
Cc1ccc2c(c1)c1c3n2CC(c2ccncc2)=CCC3(C)CN(C)C1 (stereo not drawn) [Compound 11, 2,3a,10-trimethyl-6-pyridin-4-yl-1,2,3,3a,4,7-hexahydro-2,7a-diaza-cyclohepta[jk]fluorene] | 7% | 3% | 5% | 9%
Cc1ccc2c(c1)c1c3n2C(c2ccccc2)CCC3(C)CN(C)C1 (stereo not drawn) [Compound 12, 2,3a,10-trimethyl-6-phenyl-2,3,3a,4,5,6-hexahydro-1H-indolo[3,2,1-ij][1,6]naphthyridine] | 11% | 5% | 21% | -21%
